According to PubChem BioAssay AID1935 (Broad Institute, 2009):
Records with an inconclusive call do not appear. The source made the active and inactive calls. How the calls were made is not given here.

Test system: BJ-TERT-LT-ST fibroblast viability, ATP luminescence
Test: BJ-TERT-LT-ST fibroblast viability loss – cell-based, RAS-independent, luminescence, dose response (AID 1935)

Structure (SMILES) | EC50
CCc1ccc(/C=C2\SC(=S)N(CCC(=O)NCCCN3CCOCC3)C2=O)cc1 | > 15 µM (inactive)
CCc1ccc(/C=C2/SC(=S)N(CCC(=O)NCCCN3CCOCC3)C2=O)cc1 | > 15 µM (inactive)
